In patent publication EP0236939A1, “Derivatives of 5-acyloxy-13-beta-alkyl milbemicyne against parasites in animals and plants” (CIBA-GEIGY AG, priority 1986, dated 1987):
Read-outs that look alike come from different tables or passages of the source.

Tests used:
[1] = system: Spodoptera littoralis; assay: B-1 insecticidal stomach-poison action on Spodoptera littoralis (sprayed cotton plants); assay type: in vivo; details: Wirkstoffkonzentration 3 ppm; nach 24 Stunden; L1 larvae on sprayed cotton plants
Experimental: Eingetopfte Baumwollpflanzen im 5-Blatt-Stadium werden mit einer acetonisch/wässrigen Versuchslösung besprüht, die 3, 12,5 oder 50 ppm der zu prüfenden Verbindung enthält.
Nach dem Antrocknen des Belags werden die Pflanzen mit ca. 30 Larven (L₁-Stadium) von Spodoptera littoralis besetzt. Pro Versuchsverbindung und pro Test-Spezies verwendet man zwei Pflanzen. Der Versuch wird bei ca. 24°C und 60 % relativer Luftfeuchtigkeit durchgeführt. Auswertungen und Zwischenauswertungen auf moribunde Tiere, Wachstum und Larven und Frassschäden erfolgen nach 24 Stunden, 48 Stunden und 72 Stunden.

[2] = system: L₁-Larven von Lucilia sericata; assay: B-3 action against L1 larvae of Lucilia sericata (larval culture medium); assay type: in vivo; details: after 4 days; for Wirkung (Mortalitätsrate): 100 ppm; for mortality at 100 ppm: Lucilia sericata, 96 h, read-out: Wirkung (Mortalitätsrate)
Experimental: 1 ml einer wässrigen Suspension der zu prüfenden Aktivsubstanz werden so mit 3 ml eines speziellen Larvenzuchtmediums bei ca. 50°C vermischt, dass ein Homogenisat von wahlweise 250 ppm oder 100 ppm Wirkstoffgehalt entsteht. In jede Reagenzglas-Probe werden ca. 30 Lucilia-Larven (L₁) eingesetzt. Nach 4 Tagen wird die Mortalitätsrate bestimmt. Verbindungen der Formel I aus den Tabellen, wie z.B. die Verbindungen Nr. 2.8, 2.17, 2.31, 2.33, 2.35, 2.43, 2.1, 2.18 und 2.45 erzielten mit 100 ppm eine Wirkung von 100 %.

[3] = system: Haemonchus concortus und Trichostrongylus colubriformis; assay: B-5 test on sheep infected with nematodes (worm egg count in faeces); assay type: in vivo, Schafe; details: 0,2 mg/kg, single dose by stomach tube or intraruminal injection; compared with untreated infected sheep
Experimental: Der Wirkstoff wird als Suspension formuliert mit einer Magensonde oder durch Injektion in den Pansen eines Schafes gegeben, das mit Haemonchus concortus und Trychostrongylus colubriformis künstlich infiziert worden ist. Pro Dosis werden 1 bis 3 Tiere verwendet. Jedes Schaf wird nur einmal mit einer einzigen Dosis behandelt, und zwar wahlweise mit 0,5 mg oder 0,2 mg/kg Körpergewicht. Die Evaluierung erfolgt durch Vergleich der Anzahl der vor und nach Behandlung im Kot der Schafe ausgeschiedenen Wurmeier.
Gleichzeitig und gleichartig infizierte aber unbehandelte Schafe dienen als Kontrolle.

[4] = system: Aphis craccivora; assay: B-6 contact action on Aphis craccivora (sprayed pea seedlings); assay type: in vivo; details: 12,5 ppm, after 3 days; for mortality at 12.5 ppm: Aphis craccivora, 72 h, read-out: Abtötung
Excerpt: Erbsenkeimlinge, die mit sämtlichen Entwicklungsstadien der Laus infiziert sind, werden mit einer aus einem Emulsionskonzentrat hergestellten Wirkstofflösung besprüht, die wahlweise 50 ppm, 25 ppm oder 12,5 ppm Wirkstoff enthält. Nach 3 Tagen wird auf mehr als 80 % tote bzw. abgefallene Blattläuse ausgewertet. Nur bei dieser Wirkungshöhe wird ein Präparat als wirksam eingestuft.

[5] = system: Dermanyssus gallinae; assay: B-9 miticidal action against Dermanyssus gallinae; assay type: in vivo; details: for Wirkung (Mortalität): 4320 min; for mortality at 100 ppm: Dermanyssus gallinae, 72 h, read-out: Wirkung (Mortalität)
Experimental: 2 bis 3 ml einer Testlösung (100, 10, 1 und 0,1 ppm Aktivsubstanz) werden in einen nach oben offenen Glasbehälter gegeben und ca. 200 Milben in unterschiedlichen Entwicklungsstadien in diesen Behälter eingesetzt. Der Glasbehälter wird mit einem Wattebausch verschlossen und 10 Minuten gleichmässig, bis zur vollständigen Benetzung der Milben geschüttelt. Danach wird der Behälter umgekehrt hingestellt, bis die überschüssige Testlösung von der Watte aufgesogen ist. Der Behälter wird erneut gekehrt und die behandelten […] zur Evaluierung der Wirksamkeit der Testsubstanzen drei Tage unter Laborbedingungen beobachtet, wobei die Mortalität als Massstab für Wirksamkeit herangezogen wird.

[6] = system: OP-sensible Tetranychus urticae; assay: B-2 action against plant-damaging acarids, OP-sensitive Tetranychus urticae (sprayed bean plants); assay type: in vivo; details: Wirkstoffkonzentration 0,4 ppm; evaluated after seven days; all mite stages on bean plants
Experimental: Die Primärblätter von Bohnenpflanzen (Phaseolus vulgaris) werden 16 Stunden vor dem Versuch mit einem durch T. urticae infestierten, aus einer Massenzucht stammenden Blattstück belegt. Die so mit allen Milben-Stadien infestierten Pflanzen werden nach Entfernung des Blattstücks mit einer Versuchslösung bis zur Tropfnässe besprüht, die wahlweise 0,4 ppm oder 1,6 ppm der zu prüfenden Verbindung enthält. Die Temperatur in der Gewächshauskabine beträgt ca. 25°C.
Nach sieben Tagen wird unter dem Binokular auf Prozentsatz mobiler Stadien (Adulte und Nymphen) und auf vorhandene Eier ausgewertet.

[7] = system: Boophilus microplus (Biarra-Stamm); assay: B-4 acaricidal action against Boophilus microplus (injection into engorged female ticks, IR90); assay type: in vivo; details: injection of 1, 0,1 or 0,01 µg per tick; dose of the result not stated
Experimental: Auf einer PVC-Platte wird waagrecht ein Klebstreifen so befestigt, das darauf 10 mit Blut vollgesogene Zecken-Weibchen von Boophilus microplus (Biarra-Stamm) nebeneinander in einer Reihe mit dem Rücken aufgeklebt werden können. Jeder Zecke wird mit einer Injektionsnadel 1 µl einer Flüssigkeit injiziert, die eine 1:1-Mischung von Polyethylenglykol und Aceton darstellt und in der eine bestimmte Wirkstoffmenge von wahlweise 1, 0,1 oder 0,01 µg pro Zecke gelöst ist. Kontrolltiere erhalten eine wirkstofffreie Injektion. Nach der Behandlung werden die Tiere unter Normalbedingungen in einem Insektarium bei ca. 28°C und 80 % relativer Luftfeuchtigkeit gehalten, bis die Eiablage erfolgt und die Larven aus den Eiern der Kontrolltiere geschlüpft sind.
Die Aktivität einer geprüften Substanz wird mit der IR₉₀ bestimmt, d.h. es wird jene Wirkstoffdosis ermittelt, bei der noch nach 30 Tagen 9 von 10 Zeckenweibchen (= 90 %) Eier ablegen, die nicht schlupffähig sind.

[8] = system: Aedes aegypti; assay: B-7 larvicidal action against Aedes aegypti; assay type: in vivo; details: 1,6 ppm; nach einem Tag
Experimental: Auf die Oberfläche von 150 ml Wasser, das sich in einem Behälter befindet, wird soviel einer 0,1 %igen acetonischen Lösung des Wirkstoffes pipettiert, dass Konzentrationen von wahlweise 10 ppm, 3,3 ppm und 1,6 ppm erhalten werden. Nach Verdunsten des Acetons wird der Behälter mit ca. 30-40 3 Tage alten Aedes-Larven beschickt. Nach 1, 2 und 5 Tagen wird die Mortalität geprüft.

[9] = system: Meloidogyne incognita; assay: B-8 soil-nematicidal action against Meloidogyne incognita (tomato plants, root-knot index); assay type: in vivo; details: 0,002 % Aktivsubstanz based on soil volume; after 4 weeks; untreated infected controls = 100 %
Experimental: Eier von Meloidogyne incognita werden in Sand eingemischt. Dieses Gemisch wird dann in 200 ml fassende Tontöpfe eingebracht (5000 Eier pro Topf). Am gleichen Tag wird pro Topf eine 3 Wochen alte Tomatenpflanze gepflanzt und der formulierte Wirkstoff mittels Druckapplikation in die Töpfe hineingegeben (0,002 % Aktivsubstanz bezogen auf das Bodenvolumen). Die eingetopften Pflanzen werden nun bei einer Temperatur von 26±1°C und einer relativen Luftfeuchtigkeit von 60 % in einem Gewächshaus aufgestellt. Nach Ablauf von 4 Wochen erfolgt eine Evaluierung durch Untersuchung der Pflanzen auf Wurzelgallbildung nach dem sogenannten Wurzelgall-Index ("Knot Index")

[10] = 100 ppm, observed for three days

Molecule | Nematodenbefall (Reduktion der Wurmeier im Kot) [3] | mortality at 100 ppm [2] | Abtötung sämtlicher Larven [8] | also measured
5-O-(1,2,4-Trizaol-1-yl)acetyl-13β-methyl-milbemycin A₄-Zink(II)-Komplex [Verbindung 2.35] | keinen Nematodenbefall | – | – | Abtötung [1]: vollständige Abtötung; Wirkung (Mortalitätsrate) [2]: 100%; Abtötung [4]: 100%; Wirkung (Mortalität) [5, 10]: 100%
CC[C@H]1O[C@]2(CC[C@@H]1C)C[C@@H]1C[C@@H](C/C=C(\C)[C@H](C)[C@@H](C)/C=C/C=C3\CO[C@@H]4[C@H](OC(=O)CCl)C(C)=C[C@@H](C(=O)O1)[C@]34O)O2 [Verbindung 2.8, 5-O-Chloracetyl-13β-methyl-milbemycin A₄] | keinen Nematodenbefall | 100% | vollständige Abtötung | Abtötung [1]: vollständige Abtötung; Abtötung [6]: vollständige Abtötung; Wirkung (IR₉₀) [7]: sehr gute Wirkung; mortality at 12.5 ppm [4]: 100%; mortality at 100 ppm [5, 10]: 100%
CC[C@H]1O[C@]2(CC[C@@H]1C)C[C@@H]1C[C@@H](C/C=C(\C)[C@H](CC)[C@@H](C)/C=C/C=C3\CO[C@@H]4[C@H](OC(=O)COC(C)=O)C(C)=C[C@@H](C(=O)O1)[C@]34O)O2 [Verbindung 2.18, 5-O-Acetoxy-acetyl-13β-ethyl-milbemycin A₄] | keinen Nematodenbefall | 100% | vollständige Abtötung | Restbefall (Wurzelgallbildung) [9]: 0-10%
CC[C@H]1O[C@]2(CC[C@@H]1C)C[C@@H]1C[C@@H](C/C=C(\C)[C@H](C)[C@@H](C)/C=C/C=C3\CO[C@@H]4[C@H](OC(=O)COC)C(C)=C[C@@H](C(=O)O1)[C@]34O)O2 [Verbindung 2.43, 5-O-Methoxyacetyl-13β-methyl-milbemycin A₄] | keinen Nematodenbefall | 100% | vollständige Abtötung | Abtötung [1]: vollständige Abtötung; Abtötung [6]: vollständige Abtötung; mortality at 12.5 ppm [4]: 100%
CC[C@H]1O[C@]2(CC[C@@H]1C)C[C@@H]1C[C@@H](C/C=C(\C)[C@H](C)[C@@H](C)/C=C/C=C3\CO[C@@H]4[C@H](OC(=O)COc5ccccc5)C(C)=C[C@@H](C(=O)O1)[C@]34O)O2 [Verbindung 2.53] | keinen Nematodenbefall | – | – | –
CC[C@H]1O[C@]2(CC[C@@H]1C)C[C@@H]1C[C@@H](C/C=C(\C)[C@H](C)[C@@H](C)/C=C/C=C3\CO[C@@H]4[C@H](OC(=O)COC(C)=O)C(C)=C[C@@H](C(=O)O1)[C@]34O)O2 [Verbindung 2.17, 5-O-Acetoxy-acetyl-13β-methyl-milbemycin A₄] | keinen Nematodenbefall | 100% | vollständige Abtötung | Abtötung [6]: vollständige Abtötung; mortality at 12.5 ppm [4]: 100%; Restbefall (Wurzelgallbildung) [9]: 0-10%; mortality at 100 ppm [5, 10]: 100%
CC[C@H]1O[C@]2(CC[C@@H]1C)C[C@@H]1C[C@@H](C/C=C(\C)[C@H](C)[C@@H](C)/C=C/C=C3\CO[C@@H]4[C@H](OC(C)=O)C(C)=C[C@@H](C(=O)O1)[C@]34O)O2 [Verbindung 2.1, 5-O-Acetyl-13β-methyl-milbemycin A₄] | keinen Nematodenbefall | 100% | vollständige Abtötung | –
CC[C@H]1O[C@]2(CC[C@@H]1C)C[C@@H]1C[C@@H](C/C=C(\C)[C@H](C)[C@@H](C)/C=C/C=C3\CO[C@@H]4[C@H](OC(=O)COS(=O)(=O)c5ccc(C)cc5)C(C)=C[C@@H](C(=O)O1)[C@]34O)O2 [Verbindung 2.55] | – | – | – | mortality at 100 ppm [5]: 100%
CC[C@H]1O[C@]2(CC[C@@H]1C)C[C@@H]1C[C@@H](C/C=C(\C)[C@H](CC)[C@@H](C)/C=C/C=C3\CO[C@@H]4[C@H](OC(=O)CCl)C(C)=C[C@@H](C(=O)O1)[C@]34O)O2 [Verbindung 2.45] | keinen Nematodenbefall | 100% | – | –
CC[C@H]1O[C@]2(CC[C@@H]1C)C[C@@H]1C[C@@H](C/C=C(\C)[C@H](C)[C@@H](C)/C=C/C=C3\CO[C@@H]4[C@H](OC(=O)COC(=O)c5cccc(Cl)c5)C(C)=C[C@@H](C(=O)O1)[C@]34O)O2 [Verbindung 2.44, 5-O-(3-Chlorbenzoyloxy)-acetyl-13β-methyl-milbemycin A₄] | keinen Nematodenbefall | – | – | –
CC[C@H]1O[C@]2(CC[C@@H]1C)C[C@@H]1C[C@@H](C/C=C(\C)[C@H](C)[C@@H](C)/C=C/C=C3\CO[C@@H]4[C@H](OC(=O)COCOC)C(C)=C[C@@H](C(=O)O1)[C@]34O)O2 [Verbindung 2.48] | – | – | – | mortality at 100 ppm [5, 10]: 100%
5-O-(3,4-Dihydro-2H-pyran-2-yl)carboxyacetyl-13β-methyl-milbemycin A₄ [Verbindung 2.31] | keinen Nematodenbefall | – | vollständige Abtötung | Wirkung (Mortalitätsrate) [2]: 100%; Wirkung (Mortalität) [5, 10]: 100%
